In publication PMC5557014 (Biochemical pharmacology, 2017):
Read-outs that look alike come from different tables or passages of the source.

Columns and labels:
Type in all cases: biochemical
HCMV DNA polymerase = HCMV DNA polymerase (Human cytomegalovirus, UniProt P08546); assay: HCMV DNA polymerase enzyme assay; settings: calf thymus DNA
[1] = target: T1, cellular DNA polymerase α (Homo sapiens, UniProt P09884); assay: Cellular DNA polymerase α assay
T1 sequence (P09884 1-1462): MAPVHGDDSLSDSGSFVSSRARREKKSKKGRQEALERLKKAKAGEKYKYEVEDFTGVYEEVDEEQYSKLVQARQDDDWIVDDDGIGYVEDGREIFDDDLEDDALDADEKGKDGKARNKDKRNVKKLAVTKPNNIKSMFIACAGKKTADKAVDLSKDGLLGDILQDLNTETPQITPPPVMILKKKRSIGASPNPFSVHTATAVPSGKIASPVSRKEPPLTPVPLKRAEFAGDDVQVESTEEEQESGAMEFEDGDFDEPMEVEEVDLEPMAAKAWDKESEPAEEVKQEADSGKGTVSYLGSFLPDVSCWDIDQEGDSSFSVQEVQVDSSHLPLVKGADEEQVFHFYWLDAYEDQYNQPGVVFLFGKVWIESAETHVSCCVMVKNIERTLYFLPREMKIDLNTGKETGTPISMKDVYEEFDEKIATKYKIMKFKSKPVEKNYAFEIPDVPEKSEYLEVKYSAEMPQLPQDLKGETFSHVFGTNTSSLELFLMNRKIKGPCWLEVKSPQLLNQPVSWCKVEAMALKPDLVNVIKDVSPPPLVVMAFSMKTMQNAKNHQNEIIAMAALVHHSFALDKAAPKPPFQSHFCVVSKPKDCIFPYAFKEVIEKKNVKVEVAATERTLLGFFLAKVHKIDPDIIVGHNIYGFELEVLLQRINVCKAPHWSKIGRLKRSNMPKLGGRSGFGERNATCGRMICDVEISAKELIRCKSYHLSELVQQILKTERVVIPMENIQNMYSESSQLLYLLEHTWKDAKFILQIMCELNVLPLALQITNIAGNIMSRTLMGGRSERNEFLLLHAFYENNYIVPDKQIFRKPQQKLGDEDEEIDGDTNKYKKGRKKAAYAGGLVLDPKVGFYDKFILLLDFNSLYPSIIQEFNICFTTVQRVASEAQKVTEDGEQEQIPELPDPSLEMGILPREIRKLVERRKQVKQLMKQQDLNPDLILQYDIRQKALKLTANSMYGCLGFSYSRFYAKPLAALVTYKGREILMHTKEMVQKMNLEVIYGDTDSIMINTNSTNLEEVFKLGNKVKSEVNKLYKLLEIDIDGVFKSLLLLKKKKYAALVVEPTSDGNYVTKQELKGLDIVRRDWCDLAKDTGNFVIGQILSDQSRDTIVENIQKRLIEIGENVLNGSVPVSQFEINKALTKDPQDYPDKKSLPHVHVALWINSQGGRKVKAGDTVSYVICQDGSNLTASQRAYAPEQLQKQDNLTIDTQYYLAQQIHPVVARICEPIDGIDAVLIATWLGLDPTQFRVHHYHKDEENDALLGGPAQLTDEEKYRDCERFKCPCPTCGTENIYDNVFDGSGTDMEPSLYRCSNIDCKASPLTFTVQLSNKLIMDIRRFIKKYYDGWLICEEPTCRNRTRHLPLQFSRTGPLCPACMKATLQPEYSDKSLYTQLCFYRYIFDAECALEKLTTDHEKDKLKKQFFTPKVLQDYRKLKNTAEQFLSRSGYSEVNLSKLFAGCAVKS

HSV-1 DNA polymerase = HSV-1 DNA polymerase (Human herpesvirus 1, UniProt P04293); assay: HSV-1 DNA polymerase enzyme assay; settings: calf thymus DNA
[2] = target: cellular DNA polymerase β (Homo sapiens, UniProt P06746); assay: Cellular DNA polymerase β assay
HIV-1 RT = HIV-1 RT (Human immunodeficiency virus type 1 group M subtype B, UniProt P04585); assay: HIV-1 RT assay with homopolymeric template/primers

Chain of HSV-1 DNA polymerase (P04293 whole entry): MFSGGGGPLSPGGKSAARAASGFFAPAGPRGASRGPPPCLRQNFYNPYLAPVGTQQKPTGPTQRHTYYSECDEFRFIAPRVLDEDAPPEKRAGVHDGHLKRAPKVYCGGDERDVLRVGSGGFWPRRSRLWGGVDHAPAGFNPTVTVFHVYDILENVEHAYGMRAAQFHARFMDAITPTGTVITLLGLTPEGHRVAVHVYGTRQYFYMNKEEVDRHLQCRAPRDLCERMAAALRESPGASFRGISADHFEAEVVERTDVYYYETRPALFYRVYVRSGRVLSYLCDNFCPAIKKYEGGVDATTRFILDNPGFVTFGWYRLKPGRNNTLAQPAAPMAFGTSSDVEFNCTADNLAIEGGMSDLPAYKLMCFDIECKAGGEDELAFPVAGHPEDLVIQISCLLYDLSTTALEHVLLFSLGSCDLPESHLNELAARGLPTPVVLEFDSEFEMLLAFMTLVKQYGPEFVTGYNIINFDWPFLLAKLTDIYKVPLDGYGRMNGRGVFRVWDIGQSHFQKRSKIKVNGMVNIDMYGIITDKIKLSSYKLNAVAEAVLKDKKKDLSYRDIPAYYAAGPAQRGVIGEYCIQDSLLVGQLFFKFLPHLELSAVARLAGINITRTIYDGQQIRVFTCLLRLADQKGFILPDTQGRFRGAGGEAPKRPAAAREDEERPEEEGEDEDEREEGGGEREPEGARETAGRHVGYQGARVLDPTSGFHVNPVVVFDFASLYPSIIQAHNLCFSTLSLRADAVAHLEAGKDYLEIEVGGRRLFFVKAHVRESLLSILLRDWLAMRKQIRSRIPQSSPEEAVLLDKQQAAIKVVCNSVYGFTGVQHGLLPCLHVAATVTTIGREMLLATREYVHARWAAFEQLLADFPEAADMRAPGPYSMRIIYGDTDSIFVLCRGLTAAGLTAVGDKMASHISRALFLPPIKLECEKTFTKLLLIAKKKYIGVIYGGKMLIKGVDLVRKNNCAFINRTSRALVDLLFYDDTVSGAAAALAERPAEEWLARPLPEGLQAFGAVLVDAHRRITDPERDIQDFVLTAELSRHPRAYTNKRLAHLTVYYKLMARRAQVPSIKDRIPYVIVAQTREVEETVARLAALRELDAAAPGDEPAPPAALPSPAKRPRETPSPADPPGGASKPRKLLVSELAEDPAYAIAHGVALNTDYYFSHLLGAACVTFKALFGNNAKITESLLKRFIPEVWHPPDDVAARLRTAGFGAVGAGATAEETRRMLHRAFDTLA
Chain of HCMV DNA polymerase (P08546 whole entry): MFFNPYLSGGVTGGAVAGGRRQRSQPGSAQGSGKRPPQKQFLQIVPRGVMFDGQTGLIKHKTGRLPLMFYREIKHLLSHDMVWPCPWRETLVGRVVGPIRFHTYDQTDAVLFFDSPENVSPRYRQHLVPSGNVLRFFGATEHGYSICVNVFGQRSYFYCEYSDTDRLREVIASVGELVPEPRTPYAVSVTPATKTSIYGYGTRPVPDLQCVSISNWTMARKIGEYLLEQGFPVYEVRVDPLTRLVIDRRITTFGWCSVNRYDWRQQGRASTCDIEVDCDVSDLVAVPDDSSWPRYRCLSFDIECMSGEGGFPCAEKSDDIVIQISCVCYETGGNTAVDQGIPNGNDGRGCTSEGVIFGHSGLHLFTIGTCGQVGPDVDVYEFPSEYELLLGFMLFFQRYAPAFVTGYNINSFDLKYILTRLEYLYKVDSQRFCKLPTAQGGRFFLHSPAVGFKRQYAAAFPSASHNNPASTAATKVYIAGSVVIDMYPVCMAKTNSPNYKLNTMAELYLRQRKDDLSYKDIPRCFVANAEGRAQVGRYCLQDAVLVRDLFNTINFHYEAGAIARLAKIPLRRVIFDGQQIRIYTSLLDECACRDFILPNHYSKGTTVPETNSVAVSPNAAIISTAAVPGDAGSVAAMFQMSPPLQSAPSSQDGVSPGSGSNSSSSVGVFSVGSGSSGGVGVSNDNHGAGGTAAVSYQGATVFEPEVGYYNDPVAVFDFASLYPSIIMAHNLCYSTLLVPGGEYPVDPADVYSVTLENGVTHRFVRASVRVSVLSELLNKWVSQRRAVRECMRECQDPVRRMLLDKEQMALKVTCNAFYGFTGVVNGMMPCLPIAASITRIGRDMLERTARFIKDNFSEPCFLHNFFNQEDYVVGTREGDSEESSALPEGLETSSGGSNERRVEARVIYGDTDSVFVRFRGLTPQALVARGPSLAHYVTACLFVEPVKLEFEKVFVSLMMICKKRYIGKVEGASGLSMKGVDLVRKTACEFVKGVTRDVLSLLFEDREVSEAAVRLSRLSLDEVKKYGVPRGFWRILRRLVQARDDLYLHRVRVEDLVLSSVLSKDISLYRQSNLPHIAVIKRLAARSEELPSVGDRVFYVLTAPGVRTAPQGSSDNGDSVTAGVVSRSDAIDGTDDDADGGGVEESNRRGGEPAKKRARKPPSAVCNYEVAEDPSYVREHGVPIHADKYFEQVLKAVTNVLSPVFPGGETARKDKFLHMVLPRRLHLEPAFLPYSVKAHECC

| Structure (SMILES) | IC50 (HCMV DNA polymerase; IC50 HCMV DNA pol, [^3H]dGTP) | IC50 (HCMV DNA polymerase; IC50 HCMV DNA pol, [^3H]dTTP) | IC50 [1] | IC50 (HSV-1 DNA polymerase; IC50 HSV-1 DNA pol, [^3H]dGTP) | IC50 (HSV-1 DNA polymerase; IC50 HSV-1 DNA pol, [^3H]dTTP) | IC50 [2] | IC50 (HCMV DNA polymerase; read-out: IC50 HCMV DNA pol, [^3H]dGTP) | IC50 (HCMV DNA polymerase; read-out: IC50 HCMV DNA pol, [^3H]dTTP) | IC50 (HIV-1 RT; read-out: IC50 HIV-1 RT, poly rA.dT, [^3H]dTTP) | IC50 (HIV-1 RT; read-out: IC50 HIV-1 RT, poly rC.dG, [^3H]dGTP) | IC50 ([1]; read-out: IC50 α DNA pol, calf thymus DNA, [^3H]dGTP) | IC50 (HSV-1 DNA polymerase; read-out: IC50 HSV-1 DNA pol, [^3H]dGTP) | IC50 (HSV-1 DNA polymerase; read-out: IC50 HSV-1 DNA pol, [^3H]dTTP) | IC50 ([2]; read-out: IC50 β DNA pol, calf thymus DNA, [^3H]dGTP) | IC50 (HIV-1 RT; IC50 HIV-1 RT, poly rA.dT, [^3H]dTTP) | IC50 (HIV-1 RT; IC50 HIV-1 RT, poly rC.dG, [^3H]dGTP) |
| --- | --- | --- | --- | --- | --- | --- | --- | --- | --- | --- | --- | --- | --- | --- | --- | --- |
| Cc1ccnc2c1NC(=O)c1cccnc1N2C1CC1 [Nevirapine] | > 250 µM | > 250 µM | > 250 µM | > 100 µM | > 100 µM | > 250 µM |  |  |  |  |  |  |  |  |  |  |
| O=C(O)P(=O)(O)O [PFA] |  |  |  |  |  |  | 7 ± 0.7 µM | 9.4 ± 6 µM | 0.55 ± 0.01 µM | 17 ± 2 µM | 56 ± 12 µM | 1.6 ± 0.8 µM | 3.5 ± 1.7 µM | > 100 µM |  |  |
| Nc1nc2c(ncn2[C@H]2CC[C@@H](COP(=O)(O)OP(=O)(O)OP(=O)(O)O)O2)c(=O)[nH]1 [ddGTP, 2′,3′-dideoxyguanosine-5′-triphosphate] | 48 ± 15 µM | > 100 µM | 73 ± 8 µM | 4.5 ± 1.2 µM | > 100 µM | 2.2 ± 1.8 µM |  |  |  |  |  |  |  |  | > 100 µM | 0.41 ± 0.02 µM |
